In experiment [1] the target is T1, NK3 receptors (Homo sapiens, UniProt P29371).
T1 construct: expressed in transfected cells
T1 sequence (P29371 1-465): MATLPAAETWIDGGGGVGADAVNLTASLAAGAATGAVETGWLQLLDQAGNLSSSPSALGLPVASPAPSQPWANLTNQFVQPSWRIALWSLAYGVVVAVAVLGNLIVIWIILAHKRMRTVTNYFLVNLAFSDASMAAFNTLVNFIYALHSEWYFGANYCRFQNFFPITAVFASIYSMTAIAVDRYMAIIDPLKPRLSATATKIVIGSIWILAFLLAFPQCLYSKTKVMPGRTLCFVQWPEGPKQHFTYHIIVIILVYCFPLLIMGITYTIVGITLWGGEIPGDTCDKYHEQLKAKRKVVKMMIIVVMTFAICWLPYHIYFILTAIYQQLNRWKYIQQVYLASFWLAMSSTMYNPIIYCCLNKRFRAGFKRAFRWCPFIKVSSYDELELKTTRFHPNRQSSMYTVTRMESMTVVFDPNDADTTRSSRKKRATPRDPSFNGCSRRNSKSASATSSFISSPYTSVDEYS
As to the kind of experiment: Calcium ion fluidity (FLIPR) in cells with stable expression of NK3 receptors. The class given is cell-based. To be noted: calcium signal, antagonist mode, read-out: NK3R IC50 (nM) FLIPR.

The target of experiment [2] is T1, NK3 receptors. As to the kind of experiment: Antagonism of IP1 in HEK293 cells with stable expression of NK3. In kind it is cell-based. To be noted: agonist Senktide 3 nM, read-out: NK3R IC50 (nM) IP1.

Data on two molecules can be found in patent US20230271969A1, “NITROGEN-CONTAINING FUSED RING DERIVATIVE INHIBITOR, PREPARATION METHOD THEREFOR AND USE THEREOF” (Shanghai Hansoh Biomedical Co., Ltd., priority 2020, published 2023).

The structures appear in SMILES notation.

By IC50 is commonly meant the concentration that gives 50% inhibition. For `C[C@@H]1c2nnc(-c3nc4cnc(Cl)cc4s3)n2CCN1C(=O)c1ccc(F)cc1` [Example 37, (R)-(3-(6-Chlorothiazolo[4,5-c]pyridin-2-yl)-8-methyl-5,6-dihydro-[1,2,4]triazolo[4,3-a]pyrazin-7(8H)-yl)(4-fluorophenyl)methanone], the results for the IC50 in experiment [1] and in experiment [2] were 48.9 nM and 56.5 nM, respectively.
Taken in the same sequence, the figures for `[2H]c1cc(C(=O)N2CCn3c(-c4nc(Cl)ns4)nnc3[C@H]2C)ccc1F` [Example 56, (R)-(3-(3-Chloro-1,2,4-thiadiazol-5-yl)-8-methyl-5,6-dihydro-[1,2,4]triazolo[4,3-a]pyrazin-7(8H)-yl)(4-fluorophenyl-3-d)methanone] were 155 nM and 76 nM.
